Results reported in patent publication US20110046142A1, “ANTIBIOTIC COMPOUNDS” (priority 2007, published 2011).
Converted amounts (≈) assume the structure as drawn. Like-named read-outs stand apart in the source and are kept apart here.

Columns and labels:
Assay type in all cases: cell-based
[1] = test system: E. coli K12 Δactivating enzyme; test: MIC, standard broth microdilution assay, deletion strains
Procedure: (§1) The ASKA strains of interest are validated for functional expression of the enzyme. If the protein is not expressed from a given expression vector the ORF is recloned. A strain overexpressing the activating enzyme from the ASKA library is then tested with the hit compound. If the hit has greater activity against this overexpressing strain as compared to the wild type, this indicates a prodrug. The test is performed in a standard broth microdilution assay for MIC determination. Hits with the lowest wild type MIC are then examined.
(§2) Cells were tested in a standard broth microdilution assay, inoculating 10^5 cells per well of a microtiter plate in LB broth. Overexpression and deletion strains were compared to the appropriate isogenic wild type. IPTG was added at 1 mM to growth medium. Experiments involving nfnB and nfsA strains were performed under anaerobic conditions.

E. coli K12 wt = test: MIC, standard broth microdilution assay; conditions: LB broth, 10^5 cells per well, 1 mM IPTG
Procedure: as §1, §2

[2] = test system: E. coli K12 ΔtolC overexpressing activating enzyme; test: MIC, standard broth microdilution assay, tolC deletion (MDR efflux)
Source text: Prodrugs are activated by activating enzymes into reactive molecules that bind to their targets, creating an irreversible sink. This may lead to insensitivity of the overall process to MDR efflux. In order to test this possibility, an E. coli K12 with a deletion in tolC coding for the outer membrane porin that is a component of the transenvelope MDRs was utilized (Li (2004) Drugs 64:159-204). This strain is highly sensitive to antibiotics (Tegos et al. (2002) Antimicrob. Agents Chemother. 46:3133-3141). […] The substrate specificity of AcrAB is remarkably broad, and includes essentially all small molecular weight amphipathic compounds. The AcrAB substrates include anions (SDS, fatty acids, bile acids), neutral compounds (macrolides, chloramphenicol, tetracyclines) and cations or compounds that can form cations (acridine, quaternary compound antiseptics, fluoroquinolones). AcrAB can extrude a natural broad spectrum antibiotics that evolved for good penetration, chloramphenicol and tetracycline; and also extrude synthetic broad-spectrums, the fluoroquinolones.
as §2

[3] = test system: E. coli K12 overexpressing activating enzyme; test: MIC, standard broth microdilution assay, overexpression strains
Procedure: as §1, §2

[4] = test system: E. coli K12 knockout pool (BacPool) and wild type; test: Prodrug screen, growth/no growth of BacPool knockout mix versus wild type; conditions: compounds at about 46-50 μg/ml, OD600 after overnight incubation
Source text: A complete, ordered E. coli K12 knockout library of 4320 genes and predicted ORFs (the Keio library) was used (Baba et al. (2006). Mol. Systems Biol. 2:2006.0008). The knockouts were constructed using the Wanner method with a kanamycin cassette replacing the ORFs (Datsenko et al. (2000) Proc. Natl. Acad. Sci. USA 97:6640-6645). All strains of this library were combined in a mix BacPool1) for screening. This permitted screening of the library against all strains simultaneously, instead of screening a full industry-size library against each of the individual E. coli 4×10^3 knockout strains.
The library mix was prepared by first culturing all strains overnight in LB medium, and then adding equal aliquots into a tube. This material was then mixed, dispensed in vials and stored at −80° C. For the screen, one vial was thawed, diluted to 10^5 cells/ml in LB, and dispensed into 384 well microtiter plates. The compounds were added from DMSO stocks at a final concentration of 46 μg/ml. The same compounds were added to plates containing the wild type isogenic control. Screening was performed at the Harvard NSRB/NERCE screening facility that host a collection of 150,000 compounds (see Tables 1A and 1B). All screens at NSRB/NERCE were performed in duplicate, which strongly decreases the rate of false positives and negatives. For each tested molecule there are three possible scenarios when scoring for growth/no growth:
Growth in both the BacPool and K12 wells: indicates lack of antimicrobial activity;
Growth inhibition in both the BacPool and K12 wells: a possible antibiotic (direct activity) or generally toxic compound is present, but is not a prodrug; or
Growth of a BacPool well and no growth of the K12 well: a prodrug hit.
After an overnight incubation of plates at 37° C., the plates were read at OD600. Compounds that had no effect on the growth of the mix and inhibited the growth of the wild type were recorded as hits. The wells with growth indicated a prodrug hit that is not converted into a drug by a particular deletion mutant in the mix. The mutant strain is then identified in a secondary screen (see Example 2).
Yet another screen was performed on 147,500 compounds, using the protocol described below. […]
An E. coli KanR culture was grown in LB broth containing 50 μg/ml Kanamycin for 20 hrs at 37° C. in a shaking incubator. […] The plates were then incubated for 20 hrs at 37° C., and then the plates were read for Optical Density at 600 nm and were scored for growth/no growth. […]
Hits were identified by calculating the % of inhibition of growth of E. coli measured by OD600. The data were analyzed as follows: negative controls (N), positive controls (P), and compounds (X) ODs were separately averaged and the resulting means were used to calculate % of inhibition of E. coli growth: […]

wild type (WT) E. coli = test: MIC, validation of screen hits
Procedure: (§3) To validate the screening, the activity of nitazole against strains with nitrate reductases deleted and in strains overexpressing nitrate reductases were tested. A prodrug activated by a nitrate reductase has lower activity against a strain lacking the enzyme, and a higher activity in an overexpression strain, as compared to a wild type. E. coli has two known […], NfnB and NfsA. Strains tested were wild type (WT) E. coli, two knockout strains lacking the 2 nitroreductases (NfnB−; NfsA−), and against two strains overexpressing the same enzymes (NfnB+ and NfsA+). MIC values for nitazole are shown below.

P. aeruginosa = test: Killing of logarithmic, stationary and biofilm cultures, colony count
Procedure: Persister cells in planktonic and biofilm populations are characterized for their antibiotic sensitivity in this example. Several bactericidal antimicrobials were chosen to test the resistance of P. aeruginosa to killing—ofloxacin, a fluoroquinolone; tobramycin, an aminoglycoside; carbenicillin, a β-lactam; and peracetic acid, a disinfectant oxidant (Spoering et al. (2001) J. Bacteriol. 183:6746-6751). Biofilms were grown essentially by the method of Ceri (Ceri et al. (1999) J. Clin. Microbiol. 37:1771-1776) and as described in Brooun et al. (2000) Antimicrob. Agents Chemother. 44:640-646. The device used for biofilm formation is a platform carrying 96 polystyrene pegs that fit in a microtiter plate. Preformed biofilms were incubated in the presence of an antimicrobial agent, and survival was measured after disrupting the biofilms by colony count.
Logarithmic state, stationary and biofilm cultures were challenged with carbenicillin. Carbenicillin is a bactericidal antibiotic that, similarly to most β-lactams, only kills rapidly growing cells (Tuomanen et al. (1986) Scand. J. Gastroenterol. Suppl:10-14). […] The amount of killing of logarithmic cells approached a plateau at concentrations above 1.67×MIC, indicating the presence of a persister subpopulation. These 0.1% cells in the rapidly growing logarithmic culture were invulnerable to killing by carbenicillin at 600 μg/ml.
Unlike carbenicillin, ofloxacin can kill non-growing cells (Brooun et al. (2000) Antimicrob. Agents Chemother. 44:640-646). Logarithmic, stationary and biofilm cultures were challenged with ofloxacin over a wide range of concentrations, from 1×MIC (0.5 μg/ml) to 30×MIC (15 μg/ml). After a 6 hrs incubation time with the antibiotic, viability was determined by colony count. The majority of cells in the three populations examined were killed at low concentrations of ofloxacin (FIG. 3B). The killing in all three cultures was distinctly biphasic, indicating the presence of persister cells. The levels of persisters were dramatically higher in the dense stationary planktonic and biofilm cultures as compared to logarithmic cells. […] At 5 μg/ml ofloxacin, which is the clinically achievable concentration (Schulz et al. (1997) Pharmazie 52:895-911), the percentage of live cells was 0.001% in the logarithmic population, 0.1% in the biofilm and 2.5% in the stationary culture (FIG. 3B).
Tobramycin at 50 μg/ml (the maximal clinically achievable concentration is 10 μg/ml), (Schulz et al. (1997) Pharmazie 52:895-911) eliminated 90% of the biofilm cells, and the remaining population declined gradually with increasing amounts of the antibiotic. At high concentrations surviving persisters became apparent. Tobramycin was ineffective against stationary planktonic cells, apparently due to the dependence of killing of growth.
Peracetic acid, an oxidizing disinfectant, was used in order to test the ability of a sterilizing agent to act against persisters. […] Similar results showing biphasic killing, and high level of persisters in stationary and biofilm populations, also were obtained with S. aureus and E. coli (Keren et al. (2004) FEMS Microbiol. Lett. 230:13-18).

[5] = test system: E. coli strains overexpressing NfnB+ and NfsA+; test: MIC, validation of screen hits, overexpression strains
Procedure: as §3

[6] = test system: E. coli knockout strains lacking the 2 nitroreductases (NfnB−; NfsA−); test: MIC, validation of screen hits, knockout strains
Procedure: as §3

[7] = nfnB^− deletion strain, anaerobic conditions
[8] = nfsA^− deletion strain, anaerobic conditions
[9] = ΔtolC, nfnB^+ overexpressing strain
[10] = ΔtolC, nfsA^+ overexpressing strain
[11] = nfnB^+ overexpressing strain, 1 mM IPTG, anaerobic conditions
[12] = nfsA^+ overexpressing strain, 1 mM IPTG, anaerobic conditions
[13] = Escherichia coli, K12WT, read-out: MIC
[14] = Escherichia coli, read-out: MIC

Compound: NC(=O)c1cc([N+](=O)[O-])cc([N+](=O)[O-])c1 [3,5-Dinitrobenzamide]
- MIC [1, 7]: nfnB^− > 500 μg/ml
- MIC [1, 8]: nfsA^− > 500 μg/ml
- MIC (E. coli K12 wt): 250 µg/mL (≈ 1180 µM)
- MIC [2, 9]: nfnB^+ 15.6 μg/ml
- MIC [2, 10]: nfsA^+ 7.8 μg/ml
- MIC [3, 11]: nfnB^+ 15.6 μg/ml
- MIC [3, 12]: nfsA^+ 7.8 μg/ml

Compound: Nc1nc(O)ncc1F [5-fluorocytosine, 5-Fluorocytosine]
- MIC ([1]; Escherichia coli, codA^− deletion strain): > 2500 µg/mL
- MIC (E. coli K12 wt; [13]): > 2500 µg/mL
- MIC ([2]; Escherichia coli): 625 µg/mL (≈ 4840 µM)
- MIC ([3]; Escherichia coli): 625 µg/mL (≈ 4840 µM)

Compound: NC(=O)c1cc(N2CC2)c([N+](=O)[O-])cc1[N+](=O)[O-] [Dinitroaziridinylbenzamide (CB1954), Dinitroaziridinylbenzamide]
- MIC [1, 7]: nfnB^− > 200 μg/ml
- MIC [1, 8]: nfsA^− > 200 μg/ml
- MIC (E. coli K12 wt): >200 µg/mL
- MIC [2, 9]: nfnB^+ 3.3 μg/ml
- MIC [2, 10]: nfsA^+ 6.3 μg/ml
- MIC [3, 11]: nfnB^+ 3.3 μg/ml
- MIC [3, 12]: nfsA^+ 6.3 μg/ml

Compound: CC[C@H]1OC(=O)[C@H](C)[C@@H](O[C@H]2C[C@@](C)(OC)[C@@H](O)[C@H](C)O2)[C@H](C)[C@@H](O[C@@H]2O[C@H](C)C[C@H](N(C)C)[C@H]2O)[C@](C)(O)C[C@@H](C)C(=O)[C@H](C)[C@@H](O)[C@]1(C)O [Erythromycin]
- MIC (E. coli K12 wt; [13]): 200 µg/mL (≈ 273 µM)
- MIC ([2]; Escherichia coli): 1.56 µg/mL (≈ 2.13 µM)
- MIC ([2]; ΔtolC, codA^+ overexpressing strain): codA^+ 1.56 μg/ml
- MIC ([2]; ΔtolC, deoD^+ overexpressing strain): deoD^+ 1.56 μg/ml
- MIC [2, 9]: nfnB^+ 1.56 μg/ml
- MIC [2, 10]: nfsA^+ 1.56 μg/ml
- MIC ([3]; Escherichia coli): 200 µg/mL (≈ 273 µM)
- MIC ([3]; codA^+ overexpressing strain, 1 mM IPTG): codA^+ 200 μg/ml
- MIC ([3]; deoD^+ overexpressing strain, 1 mM IPTG): deoD^+ 200 μg/ml
- MIC [3, 12]: nfsA^+ 200 μg/ml

Compound: Nc1nc(F)nc2c1ncn2[C@@H]1O[C@H](CO)[C@@H](O)[C@@H]1O [Fludarabine]
- MIC ([1]; Escherichia coli, deoD^− deletion strain): > 500 µg/mL
- MIC (E. coli K12 wt; [13]): > 500 µg/mL
- MIC ([2]; Escherichia coli): 125 µg/mL (≈ 438 µM)
- MIC ([3]; Escherichia coli): 125 µg/mL (≈ 438 µM)

Compound: S=C(Nc1cccc(Cl)c1)Nc1cccc(Cl)c1 [PD18, thiourea, N,N′-bis(3-chlorophenyl)-(9CI)]
- screen outcome (prodrug hit / direct activity) [4]: prodrug hits
- MIC (wild type (WT) E. coli; [14]): 25 µg/mL (≈ 84.1 µM)

Compound: CC(=O)OO [Peracetic acid]
- sterilization of cultures (P. aeruginosa; logarithmic, stationary and biofilm cultures): all cultures were sterilized

Compound: CC1(C)S[C@@H]2[C@H](NC(=O)C(C(=O)O)c3ccccc3)C(=O)N2[C@H]1C(=O)O (stereo partly drawn) [carbenicillin]
- killing of biofilm cells (P. aeruginosa; biofilm): resistant to killing
- concentration at which the majority of logarithmic cells were killed (P. aeruginosa; logarithmic cells): 1.67 ×MIC
- cells invulnerable to killing (persister subpopulation) (P. aeruginosa; rapidly growing logarithmic culture, 600 μg/ml): 0.1%
- killing of stationary cells (P. aeruginosa; stationary planktonic cells): little killing

Compound: CC(=O)Nc1ncc([N+](=O)[O-])s1 [nitazole, Acetamide, N-(5-nitro-2-thiazolyl)-(8CI,9CI)]
- screen outcome (prodrug hit / direct activity) [4]: prodrug hits
- MIC ([5]; Escherichia coli, NfnB+): 1.6 µg/mL (≈ 8.55 µM)
- MIC ([5]; Escherichia coli, NfsA+): 6.3 µg/mL (≈ 33.7 µM)
- MIC ([6]; Escherichia coli): 25 µg/mL (≈ 134 µM)
- MIC ([6]; NfsA−): 25 µg/mL (≈ 134 µM)
- MIC (wild type (WT) E. coli; [14]): 12.5 µg/mL (≈ 66.8 µM)

Compound: benzoxazole, 2,3-dihydro-5-nitro-2-(5-nitro-2-thienyl)-(9CI)
- screen outcome (prodrug hit / direct activity) [4]: prodrug hit
- MIC ([5]; NfnB+): 3.1 µg/mL
- MIC ([5]; NfsA+): 6.3 µg/mL
- MIC ([6]; NfnB−): 25 µg/mL
- MIC ([6]; NfsA−): 25 µg/mL
- MIC (wild type (WT) E. coli): 12.5 µg/mL
